Test results reported in patent US20140303109A1 (priority 2010, published 2014).

Columns and labels:
PGE2 = PGE2 immunoassay, three PC lines; type: cell-based, human; conditions: 24 h serum-free; CDF or CUR 1-4 μMol/L, GEM 10 nMol/L
[1] = tested on: NF-κB DNA binding activity; assay: EMSA for NF-κB DNA binding activity, three PC lines; type: cell-based, human; conditions: 72 h; CDF/CUR 1 or 4 μMol/L, GEM 10 nMol/L
Procedure: The DNA binding activity of the nuclear transcription factor, NF-κB was assessed in the BxPC-3, MIAPaCa-E, and MIAPaCa-M cell lines by EMSA. […] The cells were lysed in 400 μl of lysis buffer and the reaction was set up as described earlier in Ali, et al., id. The gel was scanned using an Odyssey Infrared Imaging System, (LI-COR, Inc., Lincoln, Nebr.). Equal protein loading was ensured by immunoblotting 10 μg of nuclear protein and probing with anti-retinoblastoma antibody.

[2] = tested on: NF-κB DNA binding activity; assay: EMSA for NF-κB DNA binding activity in tumor tissue; type: in vivo, mice; conditions: MIA PaCa-2 tumors
Procedure: Nuclear extracts were prepared from tumor tissue induced by the MIA PaCa-2 cells using an homogenizer with 400 μl of ice cold lysis buffer extracted as described earlier. EMSA was performed using the Odyssey Infrared Imaging System with NF-κβ 1RDye labeled oligonucleotide from LI-COR, Inc. (Lincoln, Nebr.). An NF-Kβ competition control study was conducted using unlabeled NF-Kβ consensus oligonucleotide. The samples were loaded and run at 30 mA for 1 hour. The gel was scanned using Odyssey Infrared Imaging System (LI-COR, Inc.).

miR-200b and miR-200c = assay: Real-time RT-PCR of miR-200b and miR-200c in PC cell lines; type: cell-based, human; conditions: 72 h; BxPC-3, MIAPaCa-E, MIAPaCaM
Procedure: The expression of miRNAs (miRNA-200a, miR-200b, and miR-21) in all three pancreatic cancer cell lines, was measured with a TaqMan MicroRNA Assay kit (Applied Biosystems, Carlsbad, Calif.) following the manufacturer's protocol. […] Real-time RT-PCR reactions were then carried out in a total volume of 25 μl reaction mixture, as described by Li, et al., id., using Smart Cycler II (Cepheid, Sunnyvale, Calif.). The data were analyzed using Ct method and were normalized by RNU6B expression in each sample.

SMILES: Nc1ccn([C@@H]2O[C@H](CO)[C@@H](O)C2(F)F)c(=O)n1 [GEM, gemcitabine]
- PGE2 secretion level (PGE2): substantial increase in the level of PGE2 secretion
- NF-κβ DNA binding activity [1]: activation of NF-κβ in all three cell lines
- NF-κβ activation in tumor tissue [2]: activated NF-κβ levels
- expression of miR-200b and miR-200c (miR-200b and miR-200c): increased expression of miR-200b and miR-200c
